Source: patent US7723370B2, “1, 2-diaryl pyrazoles useful as analgetic and antiinflammatory agents” (Richter Gedeon Vegyeszeti Gyar RT., priority 2005, dated 2010)
“And” between values parts separate entries of the source, which are not always exact repeats. Identical values can stand only once. Marks after values point to notes of the source that are not given here.

Experiments:
Assay type in all cases: in vivo, rat
[1] = tested on: carrageenan induced chronic hyperalgesia; assay: Carrageenan induced chronic hyperalgesia model in rats (Randall-Selitto)
[2] = tested on: carrageenan induced chronic hyperalgesia; assay: as above; remark: listed apart in the source
Experimental: (§1) Oedema (inflammation) was induced by subcutaneous injection of carrageenan (CARR) suspension in the subplantar region of the right hind paw of male Wistar rats, weighted 140-190 g (n=8-12 animal/group). The nociceptive thresholds of the inflamed hind paw after painful mechanical stimuli were measured with analgesimeter (Ugo Basile, type: 37215, Italy). The apparatus is suitable for the measuring of the extent and the latency of the pain reaction threshold of the sensitized paw after painful stimuli. The analgesics elevate the low pain reaction threshold of inflamed paw and the degree of its antinociceptive effect is expressed in reversal %.
(§2) An increasing pressure was applied to the paw and the withdrawal threshold was determined as the first sign (squeaking and/or struggling) of pain response. The pressure threshold was shown in grams. The average value of the hind paw withdrawal obtained with untreated right paw was regarded as the basal hind paw withdrawal (average 80-110 grams.) After determining the baseline threshold the animals received carrageenan injection that produced an intense inflammation associated with hyperalgesia. The mechanical threshold was determined at various times to establish the magnitude and duration of the hyperalgesia. The maximum reduction in threshold was measured 2-3 h after injection (the pain threshold of the inflamed paw is 20-30 g, which was decreased by 65-80% in comparing to the basic value).
(§3) Acute hvneralgesia model: the animals were treated with the test compounds and celecoxib (10 and 30 mg/kg p.o.) one hour after CARR treatment (100 μl 2% suspension). Pain threshold was measured at 2 and 4 hours after the treatment. Chronic hyperalgesia model: extended inflammation and decreased pain threshold were induced with higher dose of CARR. Pain threshold of inflamed paw was measured 24 hours after CARR treatment (150 μl, 2% suspension) then test compound and Celecoxib (30 mg/kg p.o.) were given to the animals. Pain threshold of treated paw was measured from 30 minutes till 3 hours after treatment.
(§4) Control groups in both models after CARR treatment were treated with vehicle p.o. at the same intervals as the test compounds. In both models the analgesic effect of the compounds was expressed in the reversal (%) of the decrease of the pain threshold. Reversal %=[mean of treated groupTxh(g)−treated groupT0h(g)]/[basic mean of treated groupT-1h(g)−treated groupT0h(g)] • T−1 h=mean of the pain threshold of paw before CARR treatment in acute model (g) • T0h=mean of the pain threshold before treatment 1 hour after CARR treatment in acute model (g) • T×h=pain threshold after CARR treatment in the measuring times (1 h, 2 h, 3 h) in acute model (g)

[3] = tested on: carrageenan induced paw oedema; assay: Inhibition of carrageenan induced oedema in rats; settings: for ED30: p.o.
Experimental: The treated paw was immersed up to the tibio-tarsal articulation into the chamber and the volume of displaced liquid was determined as the degree of the inflammation. Degree of inflammation (ml)=volume after the CARR treatment (ml)−volume before the CARR treatment (ml)
The degree of the anti-inflammatory effect of the treated group (which obtained test agent) was compared to that of the control group (which obtained only vehicle). The test compound and the vehicle were given orally by blunt-ended needle cannula one hour before the CARR treatment. The volume of the treated paw was measured at 3 and 5 hours after the CARR treatment and the change in the degree of inflammation in % was calculated according to the following formula: Anti-inflammatory activity %=100×[control group (ml)−treated group (ml)/control group (ml)]
[…] Anti-inflammatory activity of the compounds was determined in % at 4 and 6 hours after p.o. treatment and ED30 was calculated.

[4] = tested on: alcohol induced mucosa injury; assay: Gastric lesions induced by acidified alcohol in rats; settings: for Ulcer index: 40 minutes before ethanol+HCl, n = 10
Experimental: Male Wistar rats weighing 140-160 g were treated p.o. with a 1:0.02 mixture of dry ethanol and concentrated HCl (0.5 ml) in order to induce gastric lesions. One hour later the animals were euthanized with ether and the stomach excised along its greater curvature, the mucosa was examined for the presence of lesions.
Severity of lesions: • 1: petechiae or erosion with length of 1 mm • 2: erosion with length between 2 and 3 mm • 3: erosion with length between 3 and 4 mm • 4: erosion with length between 4 and 5 mm
If the lesion was longer than 5 mm, it was scored 4 point as many times as the total length of the lesion divisible by four and the rest of the length was evaluated according to the above scale. The degree of injury of mucosa was characterized by ulcer index. Ulcer index (severity of lesion×number of lesion) was calculated for every animal and the degree of injury of mucosa in the groups of tested animals was characterized by the mean of ulcer index of different groups of animals.
Test compounds were given p.o. 40 minutes before the ethanol+HCl treatment

[5] = tested on: acetic acid induced chronic gastric ulcer; assay: Acetic acid induced chronic gastric ulcer in rats; settings: for Area of ulcer (mm^2) / Change of bodyweight (g) + (increase) − (decrease): 30 mg/kg p.o. for seven days; for Recovery of acetic acid induced ulcer: p.o. for seven days
Experimental: In our experiments the method […] of Okabe et al was used. Male Wistar rats of 150-170 g were narcotize part of the stomach.
The test compound was given p.o. on the fifth day after the operation for seven days. The animals were euthanized with ether after 24 hours of the last dose and the abdomen was macroscopically examined (exravasation, accretion), the stomach was excised and the diameters of ulcers were measured.

[6] = tested on: myocardial ischemia-reperfusion induced injury; assay: Myocardial ischemia-reperfusion induced injury in rats (cardioprotective effect); settings: 30 mg/kg i.p. 30 minutes before occlusion; control group 90%
Experimental: Effect of compound of Example 5 and celecoxib was determined in experimental myocardial ischemia-reperfusion induced injury.
Myocardial infarction was produced in male, SPRD CFY rats of 300-360 g by surgical occlusion of left anterior descending coronary artery. Briefly, the animals were anesthetized with pentobarbital (60 mg/kg i.p.) and the chest was opened, the left coronary artery was ligated for 6 minutes followed by reperfusion. Test compounds were administered i.p. in 30 and 60 mg/kg dose 30 minutes before occlusion of the coronary artery. The control group was treated with vehicle (5% TWEEN 80 in isotonic NaCl, […]).

[7] = tested on: carrageenan induced acute hyperalgesia; assay: Carrageenan induced acute hyperalgesia in rats (Randall-Selitto model)
Experimental: as §1, §2, §3, §4

[8] = chronic model, 30 mg/kg p.o., 30 min
[9] = chronic model, 30 mg/kg p.o., 1 hour
[10] = chronic model, 30 mg/kg p.o., 2 hour
[11] = chronic model, 30 mg/kg p.o., 3 hour
[12] = inflammation induced chronic hyperalgesia model
[13] = 3 mg/kg p.o., 4 hours after treatment
[14] = 3 mg/kg p.o., 6 hours after treatment
[15] = 10 mg/kg p.o., 4 hours after treatment
[16] = 10 mg/kg p.o., 6 hours after treatment
[17] = 30 mg/kg p.o., 4 hours after treatment
[18] = 30 mg/kg p.o., 6 hours after treatment

SMILES	Analgesic effect (reversal %) after p.o. treatment ([1]; 10 mg/kg p.o., 30 min) [%]	Analgesic effect (reversal %) after p.o. treatment ([1]; 10 mg/kg p.o., 1 hour) [%]	Analgesic effect (reversal %) after p.o. treatment ([1]; 10 mg/kg p.o., 2 hour) [%]	Analgesic effect (reversal %) after p.o. treatment ([1]; 30 mg/kg p.o., 4 hour) [%]	Analgesic effect (reversal %) after p.o. treatment [2, 8] [%]	Analgesic effect (reversal %) after p.o. treatment [2, 9] [%]	Analgesic effect (reversal %) after p.o. treatment [2, 10] [%]	Analgesic effect (reversal %) after p.o. treatment [2, 11] [%]	Inhibiton of carrageenan induced edema % [3, 13] [%]	Inhibiton of carrageenan induced edema % [3, 14] [%]	Inhibiton of carrageenan induced edema % [3, 15] [%]	Inhibiton of carrageenan induced edema % [3, 16] [%]	Inhibiton of carrageenan induced edema % [3, 17] [%]	Inhibiton of carrageenan induced edema % [3, 18] [%]	ED30 ([3]; 4 hours after treatment)	ED30 ([3]; 6 hours after treatment) [mg/kg]	Ulcer index ([4]; 15 mg/kg p.o.)	Ulcer index ([4]; 30 mg/kg p.o.)	Ulcer index ([4]; 60 mg/kg p.o.)	Area of ulcer (mm^2) [5]	further results
Cc1ccc(-c2cc(C(F)(F)F)nn2-c2ccc(S(=O)(=O)NOC(C)C(=O)O)cc2)cc1 (racemic) [Example 5, (R,S)-2-[4-(5-p-methylphenyl-3-trifluoromethyl-pyrazol-1-yl)-benzensulfonylamino-oxy]-propionic acid]	23	22	28	19	42	54	34	19	21 ± 3	20 ± 3	40 ± 4	34 ± 5	49 ± 5	40 ± 4	5.7 mg/kg	8.4	43.0 ± 4.4	35.0 ± 4.4	15.8 ± 2.8	2.4 ± 0.7 mm^2	Analgesic effect (reversal %) after p.o. treatment ([1]; 10 mg/kg p.o., 3 hour): 14%; Analgesic effect (reversal %) after p.o. treatment ([1]; 10 mg/kg p.o., 4 hour): 11%; analgesic effect [2, 12]: significant analgesic effect (p<0.01); duration of action compared with the reference compound [2, 12]: several hours longer; anti-inflammatory activity compared with celecoxib ([3]; CARR induced oedema test): significantly (p<0.05) higher; Change of bodyweight (g) + (increase) − (decrease) [5]: +43 ± 5 g; Recovery of acetic acid induced ulcer [5]: did not influence it; occurrence of serious, not mortal ventricular fibrillation during reperfusion [6]: 60%; Analgesic effect (reversal %) after p.o. treatment ([7]; 10 mg/kg p.o., 1 hour): 24%; Analgesic effect (reversal %) after p.o. treatment ([7]; 10 mg/kg p.o., 2 hour): 30%; Analgesic effect (reversal %) after p.o. treatment ([7]; 10 mg/kg p.o., 3 hour): 15%; Analgesic effect (reversal %) after p.o. treatment ([7]; 30 mg/kg p.o., 1 hour): 89%; Analgesic effect (reversal %) after p.o. treatment ([7]; 30 mg/kg p.o., 2 hour): 59%; Analgesic effect (reversal %) after p.o. treatment ([7]; 30 mg/kg p.o., 3 hour): 35%
Cc1ccc(-c2cc(C(F)(F)F)nn2-c2ccc(S(N)(=O)=O)cc2)cc1 [Celecoxib, reference compound]	24	17	0	20	54	34	34	26	16 ± 3	12 ± 4	24 ± 4	18 ± 2	32 ± 5	26 ± 4	23 mg/kg and 23.0 mg/kg	>30	80.6 ± 2.3	49.4 ± 4.5	44.4 ± 6.4	8.2 ± 2.0* mm^2	analgesic effect, reversal ([2]; chronic model, 30 mg/kg p.o., time not stated): 54%; anti-inflammatory activity as compared to the control group ([3]; 6 hours after the treatment): less than 30%; effect on alcohol induced mucosa injury ([4]; p.o.): inhibited the alcohol induced mucosa injury; Change of bodyweight (g) + (increase) − (decrease) [5]: +32 ± 4 g; Recovery of acetic acid induced ulcer [5]: inhibited significantly; Analgesic effect (reversal %) after p.o. treatment ([7]; 10 mg/kg p.o., 1 hour): 0%; Analgesic effect (reversal %) after p.o. treatment ([7]; 10 mg/kg p.o., 2 hour): 0%; Analgesic effect (reversal %) after p.o. treatment ([7]; 10 mg/kg p.o., 3 hour): 0%; Analgesic effect (reversal %) after p.o. treatment ([7]; 30 mg/kg p.o., 1 hour): 24%; Analgesic effect (reversal %) after p.o. treatment ([7]; 30 mg/kg p.o., 2 hour): 3%; Analgesic effect (reversal %) after p.o. treatment ([7]; 30 mg/kg p.o., 3 hour): 0%; analgesic effect, reversal ([7]; 30 mg/kg p.o., time not stated): 24%
